Measured values from ChEMBL document CHEMBL4261596, “Growth inhibition of human ovarian carcinoma by a novel AvidinOX-anchored biotinylated camptothecin derivative” (Bioorg Med Chem Lett, 2018).
Active and inactive are the calls of the source. No cut-off for these calls is given here.

What was measured:
Mus musculus [1] = assay: Toxicity in Nu/Nu intratumorally dosed mouse xenografted with human […] cells assessed as effect on body weight administered as single dose starting from day 18 post tumor injection and measured for 50 days post dose using avidinOX conjugated compound; assay type: organism-based; conditions: in vivo, other, 1200 h
A-431 = assay: Antiproliferative activity against human A431 cells; assay type: functional, cell-based
Mus musculus [2] = assay: Toxicity in Nu/Nu intratumorally dosed mouse xenografted with human […] cells assessed as effect on body weight administered as single dose starting from day 18 post tumor injection and measured for 50 days post dose; assay type: organism-based; conditions: in vivo, other, 1200 h
SK-OV-3 [3] = assay: Antitumor activity against human SKOV3 cells xenografted in intratumorally dosed Nu/Nu mouse assessed as inhibition of tumor volume administered as single dose and monitored for 2 weeks starting from day 18 post tumor injection and measured after 32 days post dose using avidinOX conjugated compound; assay type: functional
[4] = biological target: Streptavidin (Streptomyces avidinii) (UniProt P22629); assay: Binding affinity to Streptomyces avidinii streptavidin assessed as reduction in biotinylated-alkaline phosphatase (unknown origin) binding at 1 to 1000 uM by ELISA
SK-OV-3 [5] = assay: Antitumor activity against human SKOV3 cells xenografted in intratumorally dosed Nu/Nu mouse assessed as inhibition of tumor volume administered as single dose and monitored for 2 weeks starting from day 18 post tumor injection and measured after 32 days post dose; assay type: functional

Streptavidin (Streptomyces avidinii), sequence (P22629 whole entry): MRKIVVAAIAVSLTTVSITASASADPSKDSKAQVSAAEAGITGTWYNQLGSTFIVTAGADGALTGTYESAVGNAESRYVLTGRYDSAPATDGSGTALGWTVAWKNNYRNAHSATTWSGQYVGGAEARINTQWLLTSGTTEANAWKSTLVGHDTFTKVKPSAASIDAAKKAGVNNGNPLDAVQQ

IC50 (A-431): 9.2 nM
Activity [4]: Active
Structure (SMILES): CC[C@@]1(OC(=O)OCCSSCCNC(=O)CCCC[C@@H]2SC[C@@H]3NC(=O)N[C@@H]32)C(=O)OCc2c1cc1n(c2=O)Cc2c-1nc1ccccc1c2/C=N/OC(C)(C)C
Activity (Mus musculus [1]): Non-Toxic
Activity (Mus musculus [2]): Non-Toxic
TGI (SK-OV-3 [3]): 68%
TGI (SK-OV-3 [5]): 48%
